# Where a name gives a salt, the structure may show the parent alone.
# Key:
# HO-1 = assay: HO activity assay on spleen and heart of treated mice; format: in vivo, DBA/2J mice; conditions: 5 mg/kg i.p., one day after treatment
# Method: HO activity assay. DBA/2J mice were given either no treatment or CoPPIX or ZnPPIX at a dose of 5 mg/kg, i.p. (n=10 per group). One day after the treatment, the animals were sacrificed, the spleen and the heart were excised, and tissue samples were frozen at −80° C. Frozen tissue samples were homogenized in ice-cold sucrose and Tris-HCl buffer. The microsomal pellet was obtained after centrifugation and re-suspended in MgCl2-potassium phosphate buffer. Sample protein was then incubated with the reaction mixture containing rat liver cytosol, hemin, glucose-6-phosphate, glucose-6-phosphate dehydrogenase and NADPH (Sigma-Aldrich Corporation, St. Louis, Mo.) for 60 minutes at 37° C. The generated bilirubin was measured by reacting with diazotized surfanilic acid to yield azobilirubin using spectrophotometer.
# [1] = design: species or system LEW rats; conditions: rat, in vivo, ip
# Method: Serum bilirubin levels and BVR expression in the graft. To assess how fast injected biliverdin (BV) is metabolized into bilirubin, sequential serum bilirubin levels were analyzed. Before BV treatment, serum bilirubin levels were undetectable. Thirty minutes after BV injection i.p., serum bilirubin levels reached a peak of 1.07±0.5 mg/dl compared to those of normal animals. By 2 hours after injection i.p., bilirubin levels returned to normal.
# [2] = system: LPS-induced lung inflammation; assay: Endotoxic shock (LPS) model, bronchoalveolar lavage; format: in vivo, Sprague-Dawley rats; conditions: BAL 24 hours after LPS
# Method: Treatment Protocol. Endotoxin (lipopolysaccharide/LPS; Sigma; E. coli serotype 0128:B7; 3 mg/kg, i.v.) was administered to male Sprague-Dawley, resulting in an acute non-lethal inflammation. In rats, a sublethal dose of LPS results in a moderate lung inflammation characterized by neutrophil accumulation and protein accumulation in the airspace, both markers of lung inflammation. The pro-inflammatory cytokine TNF-alpha increases very rapidly in the serum, peaking by 60-90 minutes. This is followed by increases in IL-10, a prototypical anti-inflammatory cytokine that peaks 8-12 hr later.
# Administration of Biliverdin. Biliverdin (Frontier Scientific: prepared in PBS following solubilization in NaOH) was administered i.p. at […] 17 hours prior to, one hour prior to, and eight hours after LPS administration.
# Bronchoalveolar Lavage. A bronchoalveolar lavage (BAL) was performed 24 hours after LPS administration. Serum cytokines were measured using commercially available ELISA kits (R&D Systems Inc.) per the manufacturer's instructions. Total protein was determined via a standard Bradford assay based on a standard curve. […] Total cell count was determined as well as differential analysis of cell type and morphology via Diff-Quik® Fixative (American Scientific Products) staining of a sample of the lavagate.
# iNOS = assay: Real time RT-PCR of graft muscularis after SITx, iNOS; format: in vivo, LEW rats
# Method: Small Intestinal Transplantation. Orthotopic small intestinal transplantation (SITx) was performed in syngeneic Lewis rats. SITx with caval drainage was performed using a previously described procedure (Murase et al., in Handbook of Animal Models in Transplantation Research, Cramer et al., Eds. CRC Press, Boca Raton, Fla., pp. 203-213 (1994)). […] The graft was perfused via the aortic segment with 5 ml chilled Ringer's lactate solution, and the intestinal lumen was irrigated with 20 ml of cold saline solution containing 0.5% neomycin-sulfate (Sigma, St. Louis, Mo.). […]
# SYBR green real time RT-PCR. The effects of administration of biliverdin on transplant-induced pro-inflammatory and anti-inflammatory gene expression were assessed in muscularis extracts by RT-PCR Biliverdin ([…], i.p.) was administered to both the donor and recipient three hours preoperatively. […] Equal aliquots (5 μg) of total RNA from each sample were quantified by spectrophotometry (wavelength […]) and aliquoted at a concentration of 40 ng/μl. Peak mRNA expression was quantified in duplicate by SYBR Green two-step, real-time RT-PCR. […] Real-time PCR data were plotted as the ΔRn fluorescence signal versus the cycle number. […] Quantification of mRNA expression was normalized to GAPDH and calculated relative to control using the comparative CT method (Schmittgen et al., J. Biochem. Biophys. Methods 46(1-2):69-8, 2000). […]
SMILES,HO-1 enzymatic activity (HO-1),peak serum bilirubin level ([1]; LEW) [mg/dL],time for bilirubin levels to return to normal ([1]; LEW) [h],time to peak serum bilirubin [1],neutrophil accumulation in the airspace [2],protein accumulation in the airspace [2],"reduction of mean relative iNOS mRNA expression (iNOS; BV treated rats, graft muscularis)",mRNA expression of iNOS or COX-2 (iNOS; BV treatment of unoperated control animals)
"C=CC1=C(C)c2cc3[n-]c(cc4nc(cc5[n-]c(cc1n2)c(C)c5CCC(=O)[O-])C(CCC(=O)[O-])=C4C)c(C)c3C=C.[Co+2].[H+].[H+] [CoPP, Cobalt protoporphyrin]",significantly enhanced,,,,,,,
"C=CC1=C(C)/C(=C/C2=NC(=C\c3[nH]c(/C=C4\NC(=O)C(C)=C4C=C)c(C)c3CCC(=O)O)/C(CCC(=O)O)=C2C)NC1=O [biliverdin, biliverdin dihydrochloride]",,1.07 ± 0.5,≤ 2,Thirty,reduced,reduced,approximately 50%,did not alter

# Reference: patent US8097585B2, “Methods of treating inflammation by administration of heme oxygenase-1 and products of heme degradation” (priority 2002, dated 2012)
